#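 Interpolation was linear, between the two tested concentrations surrounding the appropriate level; five concentrations were tested over 48 hours in 96-well plates. At the GI50, growth is halved.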 Calls of active or inactive are those of the source. Rule as the data show it: active = GI50 up to about 1.1 µM and inactive = higher.
# Columns and labels:
# Test in all cases: inhibition of tumour cell growth, NCI panel, 48 h
# NCI/ADR-RES = test system: NCI/ADR-RES
# PC-3 = test system: PC-3
# MDA-MB-435 = test system: MDA-MB-435
# HCC 2998 = test system: HCC 2998
# Malme-3M = test system: Malme-3M
# IGROV-1 = test system: IGROV-1
# UACC-62 = test system: UACC-62
# A549 = test system: A549
# SF-539 = test system: SF-539
# NCI-H23 = test system: NCI-H23
# SF-295 = test system: SF-295
# SK-MEL-5 = test system: SK-MEL-5
# OVCAR-8 = test system: OVCAR-8
# DU-145 = test system: DU-145
# RXF 393 = test system: RXF 393
# MCF7 = test system: MCF7
# COLO 205 = test system: COLO 205
# OVCAR-5 = test system: OVCAR-5
# HT-29 = test system: HT-29
# NCI-H522 = test system: NCI-H522
SMILES,GI50 (NCI/ADR-RES),GI50 (PC-3),GI50 (MDA-MB-435),GI50 (HCC 2998),GI50 (Malme-3M),GI50 (IGROV-1),GI50 (UACC-62),GI50 (A549),GI50 (SF-539),GI50 (NCI-H23),GI50 (SF-295),GI50 (SK-MEL-5),GI50 (OVCAR-8),GI50 (DU-145),GI50 (RXF 393),GI50 (MCF7),GI50 (COLO 205),GI50 (OVCAR-5),GI50 (HT-29),GI50 (NCI-H522)
COc1cc2c(cc1OC)C(=O)/C(=C/c1ccc(N(C)C)cc1)CC2,> 10 µM (inactive),> 10 µM (inactive),> 10 µM (inactive),> 10 µM (inactive),> 10 µM (inactive),> 10 µM (inactive),> 10 µM (inactive),> 10 µM (inactive),> 10 µM (inactive),> 10 µM (inactive),> 10 µM (inactive),> 10 µM (inactive),> 10 µM (inactive),> 10 µM (inactive),> 10 µM (inactive),> 10 µM (inactive),> 10 µM (inactive),> 10 µM (inactive),> 10 µM (inactive),–
COc1ccc(N2C(=O)C3c4[nH]c5c(C)cccc5c4C4CCC(C(C)C)CC4C3C2=O)cc1 (stereo unspecified),16.1 µM (inactive),8.87 µM (inactive),7.03 µM (inactive),10.3 µM (inactive),13.4 µM (inactive),8.99 µM (inactive),> 10 µM (inactive),5.41 µM (inactive),–,17.3 µM (inactive),14.7 µM (inactive),12 µM (inactive),12.1 µM (inactive),12.2 µM (inactive),–,5.02 µM (inactive),12.4 µM (inactive),14 µM (inactive),3.37 µM (inactive),4.51 µM (inactive)
COc1ccc2c(c1)C(=O)CC(C(N)=O)C2 (stereo unspecified),> 100 µM (inactive),> 100 µM (inactive),> 100 µM (inactive),> 100 µM (inactive),> 100 µM (inactive),> 100 µM (inactive),> 100 µM (inactive),> 100 µM (inactive),–,> 100 µM (inactive),> 100 µM (inactive),> 100 µM (inactive),> 100 µM (inactive),> 100 µM (inactive),> 100 µM (inactive),> 100 µM (inactive),> 100 µM (inactive),> 100 µM (inactive),> 100 µM (inactive),> 100 µM (inactive)
C=COC(=O)N1C2CCCC(Cl)(C(C)=O)C1CC2 (stereo unspecified),> 100 µM (inactive),> 100 µM (inactive),58.9 µM (inactive),> 100 µM (inactive),87.5 µM (inactive),> 100 µM (inactive),> 100 µM (inactive),> 100 µM (inactive),–,> 100 µM (inactive),> 100 µM (inactive),> 100 µM (inactive),> 100 µM (inactive),> 100 µM (inactive),–,> 100 µM (inactive),> 100 µM (inactive),> 100 µM (inactive),> 100 µM (inactive),> 100 µM (inactive)
COc1ccc(C(C2=C(O)COC2=O)c2cc3c(cc2O)OCO3)cc1OC (stereo unspecified),> 100 µM (inactive),> 100 µM (inactive),> 100 µM (inactive),> 100 µM (inactive),> 100 µM (inactive),> 100 µM (inactive),> 100 µM (inactive),> 100 µM (inactive),> 100 µM (inactive),–,> 100 µM (inactive),> 100 µM (inactive),> 100 µM (inactive),> 100 µM (inactive),> 100 µM (inactive),> 100 µM (inactive),> 100 µM (inactive),> 100 µM (inactive),> 100 µM (inactive),–
Cc1cc2nc3ccccc3n2c2nc(N)ccc12,23.2 µM (inactive),40.4 µM (inactive),49.5 µM (inactive),39.6 µM (inactive),–,28.1 µM (inactive),39.3 µM (inactive),30.9 µM (inactive),26.5 µM (inactive),43 µM (inactive),23.3 µM (inactive),13.6 µM (inactive),15.8 µM (inactive),52.6 µM (inactive),41.2 µM (inactive),44 µM (inactive),32.9 µM (inactive),61.2 µM (inactive),34.3 µM (inactive),31.6 µM (inactive)
CC(C)C(=O)OCN(C)c1nc(N(C)COC(=O)C(C)C)nc(N(C)COC(=O)C(C)C)n1,34.8 µM (inactive),27.7 µM (inactive),17.8 µM (inactive),–,–,–,–,43.1 µM (inactive),23.2 µM (inactive),20.7 µM (inactive),27.3 µM (inactive),15.1 µM (inactive),19.8 µM (inactive),37.5 µM (inactive),–,35.6 µM (inactive),20.1 µM (inactive),27.7 µM (inactive),25.2 µM (inactive),18.3 µM (inactive)
O=CN1CCN(c2ccc3ccc(O)nc3n2)CC1,> 100 µM (inactive),> 100 µM (inactive),> 100 µM (inactive),> 100 µM (inactive),> 100 µM (inactive),> 100 µM (inactive),> 100 µM (inactive),> 100 µM (inactive),> 100 µM (inactive),> 100 µM (inactive),> 100 µM (inactive),–,> 100 µM (inactive),> 100 µM (inactive),–,> 100 µM (inactive),> 100 µM (inactive),> 100 µM (inactive),> 100 µM (inactive),51.8 µM (inactive)
O=C(O)c1cc(Sc2ccc([N+](=O)[O-])c(C(=O)O)c2)ccc1[N+](=O)[O-],> 100 µM (inactive),> 100 µM (inactive),> 100 µM (inactive),–,0.413 µM (active),> 100 µM (inactive),> 100 µM (inactive),> 100 µM (inactive),> 100 µM (inactive),–,> 100 µM (inactive),> 100 µM (inactive),> 100 µM (inactive),> 100 µM (inactive),> 100 µM (inactive),> 100 µM (inactive),> 100 µM (inactive),> 100 µM (inactive),> 100 µM (inactive),–
O=C(O)CSC(CC1(c2ccc(Cl)cc2)NC(=O)CS1)c1ccc(Cl)cc1 (stereo unspecified),> 100 µM (inactive),> 100 µM (inactive),> 100 µM (inactive),–,–,> 100 µM (inactive),85.1 µM (inactive),> 100 µM (inactive),> 100 µM (inactive),> 100 µM (inactive),> 100 µM (inactive),> 100 µM (inactive),> 100 µM (inactive),> 100 µM (inactive),–,77.1 µM (inactive),> 100 µM (inactive),> 100 µM (inactive),> 100 µM (inactive),46.2 µM (inactive)
CCC(C)[C@H]1C(=O)N=C(N)N1C(=O)OCc1ccccc1 (stereo partly specified),> 100 µM (inactive),> 100 µM (inactive),> 100 µM (inactive),> 100 µM (inactive),> 100 µM (inactive),> 100 µM (inactive),> 100 µM (inactive),–,–,> 100 µM (inactive),> 100 µM (inactive),> 100 µM (inactive),> 100 µM (inactive),> 100 µM (inactive),> 100 µM (inactive),> 100 µM (inactive),> 100 µM (inactive),> 100 µM (inactive),> 100 µM (inactive),> 100 µM (inactive)

# — ChEMBL document CHEMBL1201862, “PubChem BioAssay data set” (2004)
